Test results from patent US11382918B2, “Methods for treating Huntington's Disease” (PTC Therapeutics, Inc., priority 2017, dated 2022).

System: Endogenous Huntingtin Protein (HTT)
Experiment: Endogenous Huntingtin Protein Assay (ELISA-based MSD electrochemiluminescence)
Type: cell-based
Conditions: Table 1
Method in brief: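 HTT protein in lysates was measured by electrochemiluminescence on the MSD platform. Rabbit monoclonal 5656S followed by SULFO-TAG anti-rabbit antibody served for detection after overnight 4 °C capture with MAB2166 or the polyglutamine-directed MW1 antibody.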

SMILES | IC50
Cc1cn2cc(-c3cc(=O)n4cc(N5CCN(C)CC5)ccc4n3)cc(CO)c2n1 [compound 677, 2-[8-(hydroxymethyl)-2-methylimidazo[1,2-a]pyridin-6-yl]-7-(4-methylpiperazin-1-yl)-4H-pyrido[1,2-a]pyrimidin-4-one] | 3000 to 33000 nM
CCN1CC=C(c2cn3c(=O)cc(-c4ccc5nc(C)cn5n4)nc3cn2)CC1 [compound 842, 7-(1-ethyl-1,2,3,6-tetrahydropyridin-4-yl)-2-(2-methylimidazo[1,2-b]pyridazin-6-yl)-4H-pyrazino[1,2-a]pyrimidin-4-one] | 3000 to 33000 nM
Cc1cn2nc(-c3cc(=O)n4cc(N5C[C@@H](C)N[C@@H](C)C5)ccc4n3)cc2cn1 [compound 442, 7-[(3R,5S)-3,5-dimethylpiperazin-1-yl]-2-(6-methylpyrazolo[1,5-a]pyrazin-2-yl)-4H-pyrido[1,2-a]pyrimidin-4-one] | 3000 to 33000 nM
Cc1cn2nc(-c3cc(=O)n4cc(N5CCN(CCO)[C@H](C)C5)ccc4n3)cc2c(C)n1 [compound 532, 2-(4,6-dimethylpyrazolo[1,5-a]pyrazin-2-yl)-7-[(3R)-4-(2-hydroxyethyl)-3-methylpiperazin-1-yl]-4H-pyrido[1,2-a]pyrimidin-4-one] | 1000 to 3000 nM
Cc1cn2cc(-c3cc(=O)n4cc(N5CCN(C6CC6)CC5)ccc4n3)cc(F)c2n1 [compound 412, 7-(4-cyclopropylpiperazin-1-yl)-2-(8-fluoro-2-methylimidazo[1,2-a]pyridin-6-yl)-4H-pyrido[1,2-a]pyrimidin-4-one] | 3000 to 33000 nM
Cc1cn2nc(-c3cc(=O)n4cc(N5CCN(C)CC5)ccc4n3)cc2c(N(C)C)n1 [compound 843, 2-[4-(dimethylamino)-6-methylpyrazolo[1,5-a]pyrazin-2-yl]-7-(4-methylpiperazin-1-yl)-4H-pyrido[1,2-a]pyrimidin-4-one] | 3000 to 33000 nM
Cc1cn2ccc(-c3cc(=O)n4cc(N5CCN(C)CC5)ccc4n3)cc2n1 [compound 557, 2-(2-methylimidazo[1,2-a]pyridin-7-yl)-7-(4-methylpiperazin-1-yl)-4H-pyrido[1,2-a]pyrimidin-4-one] | 3000 to 33000 nM
Cc1cc(C2CC(C)(C)NC(C)(C)C2)cn2c(=O)cc(-c3ccc4nn(C)cc4c3)nc12 [compound 867, 9-methyl-2-(2-methyl-2H-indazol-5-yl)-7-(2,2,6,6-tetramethylpiperidin-4-yl)-4H-pyrido[1,2-a]pyrimidin-4-one] | 3000 to 33000 nM
CN1CCC(c2ccc3nc(-c4ccc(N(C)C)nc4)cc(=O)n3c2)CC1 [compound 841, 2-[6-(dimethylamino)pyridin-3-yl]-7-(1-methylpiperidin-4-yl)-4H-pyrido[1,2-a]pyrimidin-4-one] | 3000 to 33000 nM
COc1cc(O)ccc1-c1cc(=O)n2cc(C3=CCN(C(=O)OC(C)(C)C)CC3)ccc2n1 [compound 847, tert-butyl 4-[2-(4-hydroxy-2-methoxyphenyl)-4-oxo-4H-pyrido[1,2-a]pyrimidin-7-yl]-3,6-dihydropyridine-1(2H)-carboxylate] | 3000 to 33000 nM
Cc1cc(N2CCNCC2)cn2c(=O)cc(-c3ccc4nn(C)cc4c3)nc12 [compound 754, 9-methyl-2-(2-methyl-2H-indazol-5-yl)-7-(piperazin-1-yl)-4H-pyrido[1,2-a]pyrimidin-4-one] | 500 to 1000 nM
CCN1CC=C(c2cn3c(=O)cc(-c4ccc5nc(C)oc5c4)nc3cn2)CC1 [compound 423, 7-(1-ethyl-1,2,3,6-tetrahydropyridin-4-yl)-2-(2-methyl-1,3-benzoxazol-6-yl)-4H-pyrazino[1,2-a]pyrimidin-4-one] | 3000 to 33000 nM
Cc1cn2nc(-c3cc(=O)n4cc(N5CCNCC5)ccc4n3)cc2c(C2CC2)n1 [compound 683, 2-(4-cyclopropyl-6-methylpyrazolo[1,5-a]pyrazin-2-yl)-7-(piperazin-1-yl)-4H-pyrido[1,2-a]pyrimidin-4-one] | 3000 to 33000 nM
Cn1cc2cc(-c3cc(=O)n4cc(N5CCN(CCO)CC5)ncc4n3)ccc2n1 [compound 591, 7-[4-(2-hydroxyethyl)piperazin-1-yl]-2-(2-methyl-2H-indazol-5-yl)-4H-pyrazino[1,2-a]pyrimidin-4-one] | 3000 to 33000 nM
Cc1cc(C2CCN(CCO)CC2)cn2c(=O)cc(-c3ccc4nn(C)cc4c3)nc12 [compound 711, 7-[1-(2-hydroxyethyl)piperidin-4-yl]-9-methyl-2-(2-methyl-2H-indazol-5-yl)-4H-pyrido[1,2-a]pyrimidin-4-one] | 100 to 500 nM
Cc1cn2cc(-c3ccc4nc(C5CCNCC5)cc(=O)n4c3)ccc2n1 [compound 409, 7-(2-methylimidazo[1,2-a]pyridin-6-yl)-2-(piperidin-4-yl)-4H-pyrido[1,2-a]pyrimidin-4-one] | 1000 to 3000 nM
Cn1cc2cc(-c3cc(=O)n4cc(N5CCNCC5)ccc4n3)ccc2n1 [compound 137, 2-(2-methyl-2H-indazol-5-yl)-7-(piperazin-1-yl)-4H-pyrido[1,2-a]pyrimidin-4-one] | 1000 to 3000 nM

SMILES | IC50
Cc1cn2nc(-c3cc(=O)n4cc(N5CCC(N(C)CCO)CC5)cc(C)c4n3)cc2c(C)n1 [compound 582, 2-(4,6-dimethylpyrazolo[1,5-a]pyrazin-2-yl)-7-{4-[(2-hydroxyethyl)(methyl)amino]piperidin-1-yl}-9-methyl-4H-pyrido[1,2-a]pyrimidin-4-one] | 3000 to 33000 nM
Cc1cn2cc(-c3ccc4nc(C5CCN(C)CC5)cc(=O)n4c3)cc(F)c2n1 [compound 462, 7-(8-fluoro-2-methylimidazo[1,2-a]pyridin-6-yl)-2-(1-methylpiperidin-4-yl)-4H-pyrido[1,2-a]pyrimidin-4-one] | 1000 to 3000 nM
Cc1cn2nc(-c3cc(=O)n4cc(C5=CCN(C)CC5)cc(C)c4n3)cc2c(C)n1 [compound 481, 2-(4,6-dimethylpyrazolo[1,5-a]pyrazin-2-yl)-9-methyl-7-(1-methyl-1,2,3,6-tetrahydropyridin-4-yl)-4H-pyrido[1,2-a]pyrimidin-4-one] | 3000 to 33000 nM
CCN1CC=C(c2cc(C)c3nc(-c4cc5c(C)nc(C)cn5n4)cc(=O)n3c2)CC1 [compound 482, 2-(4,6-dimethylpyrazolo[1,5-a]pyrazin-2-yl)-7-(1-ethyl-1,2,3,6-tetrahydropyridin-4-yl)-9-methyl-4H-pyrido[1,2-a]pyrimidin-4-one] | 3000 to 33000 nM
CCc1nc(C)cn2nc(-c3cc(=O)n4cc(N5CCN(CCCF)[C@H](C)C5)ccc4n3)cc12 [compound 667, 2-(4-ethyl-6-methylpyrazolo[1,5-a]pyrazin-2-yl)-7-[(3R)-4-(3-fluoropropyl)-3-methylpiperazin-1-yl]-4H-pyrido[1,2-a]pyrimidin-4-one] | 1000 to 3000 nM
CCN1CC=C(c2ccc3nc(-c4cc(F)c5nc(C)oc5c4)cc(=O)n3c2)CC1 [compound 318, 7-(1-ethyl-1,2,3,6-tetrahydropyridin-4-yl)-2-(4-fluoro-2-methyl-1,3-benzoxazol-6-yl)-4H-pyrido[1,2-a]pyrimidin-4-one] | 1000 to 3000 nM
Cc1cn2nc(-c3cc(=O)n4cc(N5CC[C@@H](CN(C)C)C5)ccc4n3)cc2c(C)n1 [compound 770, 7-{(3S)-3-[(dimethylamino)methyl]pyrrolidin-1-yl}-2-(4,6-dimethylpyrazolo[1,5-a]pyrazin-2-yl)-4H-pyrido[1,2-a]pyrimidin-4-one] | 3000 to 33000 nM
CN1CCC(c2cn3c(=O)cc(-c4ccc5nn(C)cc5c4)nc3cn2)CC1 [compound 567, 2-(2-methyl-2H-indazol-5-yl)-7-(1-methylpiperidin-4-yl)-4H-pyrazino[1,2-a]pyrimidin-4-one] | 3000 to 33000 nM
CCc1nc(C)cn2nc(-c3cc(=O)n4cc(C5CCN(CCF)CC5)ccc4n3)cc12 [compound 668, 2-(4-ethyl-6-methylpyrazolo[1,5-a]pyrazin-2-yl)-7-[1-(2-fluoroethyl)piperidin-4-yl]-4H-pyrido[1,2-a]pyrimidin-4-one] | 500 to 1000 nM
Cc1cc(-c2cc(=O)n3cc(N4CCN[C@@H](C)C4)ccc3n2)cc2cn(C)nc12 [compound 750, 2-(2,7-dimethyl-2H-indazol-5-yl)-7-[(3S)-3-methylpiperazin-1-yl]-4H-pyrido[1,2-a]pyrimidin-4-one] | 3000 to 33000 nM
Cc1cn2nc(-c3cc(=O)n4cc(C5CCN(C)CC5)ncc4n3)cc2c(C)n1 [compound 503, 2-(4,6-dimethylpyrazolo[1,5-a]pyrazin-2-yl)-7-(1-methylpiperidin-4-yl)-4H-pyrazino[1,2-a]pyrimidin-4-one] | 1000 to 3000 nM
COc1cnc(-c2cc(=O)n3cc(N4CCNCC4)ccc3n2)cc1OC [compound 199, 2-(4,5-dimethoxypyridin-2-yl)-7-(piperazin-1-yl)-4H-pyrido[1,2-a]pyrimidin-4-one] | 3000 to 33000 nM
Cc1cn2nc(-c3cc(=O)n4cc(N5CCC(C)(NCCO)CC5)ccc4n3)cc2c(C)n1 [compound 709, 2-(4,6-dimethylpyrazolo[1,5-a]pyrazin-2-yl)-7-{4-[(2-hydroxyethyl)amino]-4-methylpiperidin-1-yl}-4H-pyrido[1,2-a]pyrimidin-4-one] | 3000 to 33000 nM
O=c1cc(-c2ccc3nccn3c2)nc2ccc(N3CCNCC3)cn12 [compound 108, 2-(imidazo[1,2-a]pyridin-6-yl)-7-(piperazin-1-yl)-4H-pyrido[1,2-a]pyrimidin-4-one] | 3000 to 33000 nM
CCN1CCC(c2cn3c(=O)cc(-c4cc(F)c5nn(C)cc5c4)nc3c(C)n2)CC1 [compound 872, 7-(1-ethylpiperidin-4-yl)-2-(7-fluoro-2-methyl-2H-indazol-5-yl)-9-methyl-4H-pyrazino[1,2-a]pyrimidin-4-one] | < 100 nM
CCN1CC=C(c2ccc3nc(-c4cc5c(C)nc(C)cn5n4)cc(=O)n3c2)CC1 [compound 351, 2-(4,6-dimethylpyrazolo[1,5-a]pyrazin-2-yl)-7-(1-ethyl-1,2,3,6-tetrahydropyridin-4-yl)-4H-pyrido[1,2-a]pyrimidin-4-one] | 3000 to 33000 nM
C[C@@H]1CN(c2ccc3nc(-c4ccc5c(cnn5C)c4)cc(=O)n3c2)C[C@H](C)N1 [compound 552, 7-[(3R,5S)-3,5-dimethylpiperazin-1-yl]-2-(1-methyl-1H-indazol-5-yl)-4H-pyrido[1,2-a]pyrimidin-4-one] | 3000 to 33000 nM
